The record followed here is patent publication US8815912B2, “Wound and mucosa antiseptic based on bispyridiniumalkanes” (L'Air Liquide Société Anonyme pour l'Etude et …, priority 2009, dated 2014).

A short description of this data set: Stability of solutions rendered isotonic (290 mOsmol/kg). The data set is classed as physicochemical. Particulars: 0.10% octenidine, dihydrochloride. The text has this:
To investigate the stability, aqueous solutions containing 0.1% by weight of octenidine were in each case rendered isotonic (290 mOsmol/kg).

On to `CCCCCCCCN=c1ccn(CCCCCCCCCCn2ccc(=NCCCCCCCC)cc2)cc1.Cl.Cl` [Octenidine, Octenidine dihydrochloride], for which the Stability result (isotonicity adjusted with 0.85% sodium chloride, listed as octenidine) was “not stable”; the Stability result (isotonicity adjusted with 2.4% glycerol (99.8% strength)) is “Stable between +4 °C and +40 °C”; the Stability result (isotonicity adjusted with 2.4% glycerol (99.8% strength), listed as octenidine) is reported as “stable”; the Stability result (isotonicity adjusted with 99.9% Ringer's solution, listed as octenidine) is recorded as “not stable”.
